Results taken from patent US9528992B2, “Methods and kits for detection of active malignancy” (priority 2012, dated 2016).

Legend:
serum albumin = target: T1, serum albumin (Homo sapiens, UniProt P02768); assay: EPR spectroscopy of spin probe binding to primary and secondary binding sites of serum albumin in patient serum
T1 construct: from tissue; host or cells: blood serum of patients (whole blood centrifugation)
Excerpt: At the condition of binding equilibrium in the mixture of sample aliquot, probe, and solvent, the binding efficiencies (BE1 and BE2) of specific (primary) and non-specific (secondary) hydrophobic binding sites of serum albumin can be calculated using the concentrations of the probe bound on the primary site of albumin (B1), on the secondary albumin site (B2) and unbound probe concentration (F), and solvent concentration (S) in the mixture. For example, can be calculated with either: 1/BE1=1/(Kb1·N1)=(Sc/S−1)·(F/B1)·P·(1−B1/(P·N1)) (2) 1/BE2=1/(Kb2·N2)=(Sc/S−1)·(F/B2)·P·(1−B2/(P·N2)) (3) where Sc=0.27 volume percent is the critical concentration of the solvent (as described above), P is the concentration of serum albumin in the sample, N1 is the number of specific or primary binding sites for the probe on the serum albumin molecule, N2 is the number of non-specific or secondary binding sites for the probe between the albumin on the serum albumin molecule. Generally, where the probe is a long chain fatty acid, N1=7 and N2 is from 6 to 8 for purified albumin. For native serum albumin of a healthy person N1 is from 4 to 7, and N2 is from 3 to 7. In native serum samples, typically the relative concentration of the spin probe bound on primary site, parameter B1/P, is about 0.5; and parameter B2/P is about 0.4. Therefore, the binding efficiencies BE1 and BE2 can be calculated (within about 10%) using the approximate formulas: 1/BE1=(Sc/S−1)·(F/B1)·P (2a) 1/BE2=(Sc/S−1)·(F/B2)·P (3a)
In Table 2, B1 and B2 are relative concentrations of the probe bound on primary and secondary sites of albumin, F is the relative concentration of unbound probe, B1/F and B2/F are parameters representing the binding efficiency of the primary and secondary binding sites of albumin, DP is discriminating parameter designed by square discriminant analysis using a set of probe binding parameters.
Blood serum was obtained by whole blood centrifugation. An aliquot of 50 μl of serum from each patient was used for each test. A spin probe of 2-(14-carboxytetradecyl)-2-ethyl-4,4-dimethyl-3-oxazolidinyloxy (purchased from Fluorochem Ltd., Derbyshire, UK) was mixed into the aliquot at a concentration of 1.64 mmol/l. A solvent, 14 μl of ethanol, was mixed into the aliquot. The molar ratio of the probe to serum albumin in the aliquot was 3.5, based on an albumin concentration in the serum of 4 g/dL. The mixture was then incubated for 10 min at 37° C. with continuous agitation in a standard shaker operated at about 5-8 Hz.
After incubation, the probe was placed into a glass capillary (e.g., Model No. RM-40, available from KABE LABORTECHNIK GmbH, Numbrecht-Elsenroth, Germany).
The EPR spectrum of the mixture was then measured, as described below. The above-described capillary was placed into the resonator of an EPR spectrometer for spectroscopic analysis. The spectroscopy parameters were as follows: microwave power 15 mW at frequency 9.52 GHz; magnetic field 0.34 T (3400 G) with scan range 12 mT (120 G); modulation amplitude 0.2 mT (2 G); data accumulation by three scans each with 4096 measured points and a sweep time 60 s. The capillary temperature was 37° C., and was controlled within +/−0.2° C.
The EPR spectrum was analyzed by computer using an EPR-spectrum simulation with nonlinear least-squares fits. The spectrum model included five components. The first two are the B and C components which represent portions of the probe that were bound differently on serum albumin. As shown here, the B and C components primarily differed by spectral parameters of A tensors (hyperfine splitting tensor): A∥(B)=30.02 Oe, A⊥(B)=9.02 Oe, A∥(C)=21.5 Oe, and A⊥(C)=13.35 Oe. Parameters of the g tensor used in the spectral calculations of these two components were: g∥(B)=1.9983, g⊥(B)=2.0019, g∥(C)=1.9990, and g⊥(C)=2.0013. The third D component represented the unbound spin probe residing free in the sample. The parameters of the D component were: A∥(D)=A⊥(D)=15.6 Oe, and g∥(D)=g⊥(D)=2.0008. […]

albumin = albumin (Homo sapiens, UniProt P02768); conditions: affinity of albumin for unlabeled stearic acid; cited from earlier work
[1] = cancer-free persons, Mean, serum albumin 0.47 mmol, spin probe 1.64 mmol, ethanol 0.22 volume percent
[2] = patients with active malignancies, Max
[3] = patients with active malignancies, Mean
[4] = patients with active malignancies, Mean, serum albumin 0.47 mmol, spin probe 1.64 mmol, ethanol 0.22 volume percent
[5] = patients with active malignancies, Min

T1 sequence (P02768 25-609): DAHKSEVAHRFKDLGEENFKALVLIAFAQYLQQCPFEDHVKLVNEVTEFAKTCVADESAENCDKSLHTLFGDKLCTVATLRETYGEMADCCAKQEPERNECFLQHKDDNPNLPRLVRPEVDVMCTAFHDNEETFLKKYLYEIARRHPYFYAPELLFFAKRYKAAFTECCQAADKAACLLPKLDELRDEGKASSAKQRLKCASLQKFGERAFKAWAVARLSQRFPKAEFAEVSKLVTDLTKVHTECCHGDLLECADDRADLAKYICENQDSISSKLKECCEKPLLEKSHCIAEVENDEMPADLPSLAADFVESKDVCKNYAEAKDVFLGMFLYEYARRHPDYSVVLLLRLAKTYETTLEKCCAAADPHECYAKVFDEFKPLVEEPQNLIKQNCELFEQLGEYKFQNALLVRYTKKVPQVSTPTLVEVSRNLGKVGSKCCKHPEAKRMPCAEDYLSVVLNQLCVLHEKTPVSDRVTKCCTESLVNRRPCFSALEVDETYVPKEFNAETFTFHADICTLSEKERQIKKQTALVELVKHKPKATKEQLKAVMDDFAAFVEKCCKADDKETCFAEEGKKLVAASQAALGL
albumin, sequence (P02768 25-609, species assumed): as the sequence (P02768 25-609) above

With `CCC1(CCCCCCCCCCCCCCC(=O)O)OCC(C)(C)N1[O]` (stereo not shown) [16-doxyl stearic acid, 2-(14-carboxytetradecyl)-2-ethyl-4,4-dimethyl-3-oxazolidinyloxy] the “B1, relative concentration of probe bound on primary sites of albumin” value (serum albumin; cancer-free persons, Max) was 0.60, the “B1/F, binding efficiency of primary binding sites of albumin” value (from here on “B1/F, binding efficiency”) (serum albumin; cancer-free persons, Max) was 54.4 and the “B2, relative concentration of probe bound on secondary sites of albumin” value (serum albumin; cancer-free persons, Max) was 0.45. The “B2/F, binding efficiency of secondary binding sites of albumin” value (from here on “B2/F, binding efficiency”) (serum albumin; cancer-free persons, Max) was 37.5, the “DP, discriminating parameter” value (serum albumin; cancer-free persons, Max) was −0.3 and the “F, relative concentration of unbound probe” value (serum albumin; cancer-free persons, Max) was 0.044. For the same compound, the “B1/F, binding efficiency” value (serum albumin; cancer-free persons, Mean) was 21.8, the “B2/F, binding efficiency” value (serum albumin; cancer-free persons, Mean) was 15.8 and the “DP, discriminating parameter” value (serum albumin; cancer-free persons, Mean) was −3.3. The “B1, relative concentration of probe bound on primary sites of albumin” value (serum albumin; [1]) was 0.52, the “B2, relative concentration of probe bound on secondary sites of albumin” value (serum albumin; [1]) was 0.38 and the “F, relative concentration of unbound probe” value (serum albumin; [1]) was 0.026. For the same compound, the “B1, relative concentration of probe bound on primary sites of albumin” value (serum albumin; cancer-free persons, Min) was 0.40, the “B1/F, binding efficiency” value (serum albumin; cancer-free persons, Min) was 10.4 and the “B2, relative concentration of probe bound on secondary sites of albumin” value (serum albumin; cancer-free persons, Min) was 0.34. The “B2/F, binding efficiency” value (serum albumin; cancer-free persons, Min) was 8.5, the “DP, discriminating parameter” value (serum albumin; cancer-free persons, Min) was −5.2 and the “F, relative concentration of unbound probe” value (serum albumin; cancer-free persons, Min) was 0.010. The “B1, relative concentration of probe bound on primary sites of albumin” value (serum albumin; [2]) was 0.54, the “B1/F, binding efficiency” value (serum albumin; [2]) was 11.4 and the “B2, relative concentration of probe bound on secondary sites of albumin” value (serum albumin; [2]) was 0.38. The “B2/F, binding efficiency” value (serum albumin; [2]) was 6.5, the “DP, discriminating parameter” value (serum albumin; [2]) was 66.0 and the “F, relative concentration of unbound probe” value (serum albumin; [2]) was 0.155. For the same compound, the “B1/F, binding efficiency” value (serum albumin; [3]) was 5.9, the “B2/F, binding efficiency” value (serum albumin; [3]) was 4.5 and the “DP, discriminating parameter” value (serum albumin; [3]) was 8.0. For the same compound, the “B1, relative concentration of probe bound on primary sites of albumin” value (serum albumin; [4]) was 0.44, the “B2, relative concentration of probe bound on secondary sites of albumin” value (serum albumin; [4]) was 0.33 and the “F, relative concentration of unbound probe” value (serum albumin; [4]) was 0.079. For the same compound, the “B1, relative concentration of probe bound on primary sites of albumin” value (serum albumin; [5]) was 0.32, the “B1/F, binding efficiency” value (serum albumin; [5]) was 2.3 and the “B2, relative concentration of probe bound on secondary sites of albumin” value (serum albumin; [5]) was 0.23. The “B2/F, binding efficiency” value (serum albumin; [5]) was 1.6, the “DP, discriminating parameter” value (serum albumin; [5]) was 0.1 and the “F, relative concentration of unbound probe” value (serum albumin; [5]) was 0.047.
In the case of `CCCCCCCCCCCCCCCCCC(=O)O` [stearic acid], the binding constant (albumin) is given as “about 10^9 mol^−1”.
